In ChEMBL document CHEMBL1130625, “Synthesis and antibacterial activity of novel 7-(3-substituted-3 or 4-trifluoromethyl-1-pyrrolidinyl)-8-methoxyfluoroquinolones” (1998):
Converted amounts (≈) assume the structure as drawn.

Assays:
Klebsiella pneumoniae [1] = experiment: Compound was tested for antibacterial activity against gram negative Klebsiella pneumoniae No.42; format: functional; details: Klebsiella pneumoniae; read-out: MIC
Staphylococcus aureus [2] = experiment: Compound was tested for antibacterial activity against gram positive Staphylococcus aureus KP-90-3; format: functional; details: Staphylococcus aureus; read-out: MIC
Pseudomonas aeruginosa [3] = experiment: Compound was tested for antibacterial activity against gram negative Pseudomonas aeruginosa K-13; format: functional; details: Pseudomonas aeruginosa; read-out: MIC
Pseudomonas aeruginosa [4] = experiment: Compound was tested for antibacterial activity against gram negative Pseudomonas aeruginosa KP-254; format: functional; details: Pseudomonas aeruginosa; read-out: MIC
Burkholderia cepacia = experiment: Compound was tested for antibacterial activity against gram negative Burkholderia cepacia 23; format: functional; details: Burkholderia cepacia; read-out: MIC
Escherichia coli [5] = experiment: Compound was tested for antibacterial activity against gram negative Escherichia coli CSH2/RE45; format: functional; details: Escherichia coli; read-out: MIC
Proteus vulgaris [6] = experiment: Compound was tested for antibacterial activity against gram negative Proteus vulgaris No.33; format: functional; details: Proteus vulgaris; read-out: MIC
Staphylococcus aureus [7] = experiment: Compound was tested for antibacterial activity against gram positive Staphylococcus aureus JS-1; format: functional
Escherichia coli [8] = experiment: Compound was tested for antibacterial activity against gram negative Escherichia coli NIHJ JC-2; format: functional
Citrobacter freundii [9] = experiment: Compound was tested for antibacterial activity against gram negative Citrobacter freundii KP-29; format: functional; details: Citrobacter freundii; read-out: MIC
Proteus mirabilis = experiment: Compound was tested for antibacterial activity against gram negative Proteus mirabilis JY-10; format: functional; details: Proteus mirabilis; read-out: MIC
Enterococcus faecalis = experiment: Compound was tested for antibacterial activity against gram positive Enterococcus faecalis 1373; format: functional; details: Enterococcus faecalis; read-out: MIC
Serratia marcescens = experiment: Compound was tested for antibacterial activity against gram negative Serratia marcescens No.16-2; format: functional; details: Serratia marcescens; read-out: MIC
Proteus vulgaris [10] = experiment: Compound was tested for antibacterial activity against gram negative Proteus vulgaris KS-134; format: functional; details: Proteus vulgaris; read-out: MIC
Streptococcus pyogenes = experiment: Compound was tested for antibacterial activity against gram positive Streptococcus pyogenes cook; details: Streptococcus pyogenes; read-out: MIC
Staphylococcus aureus [11] = experiment: Compound was tested for antibacterial activity against gram positive Staphylococcus aureus smith; format: functional
Enterobacter cloacae = experiment: Compound was tested for antibacterial activity against gram negative Enterobacter cloacae Nek39; format: functional; details: Enterobacter cloacae; read-out: MIC
Staphylococcus aureus [12] = experiment: Compound was tested for antibacterial activity against gram positive Staphylococcus aureus FDA 209P JC-1; format: functional; details: Staphylococcus aureus; read-out: MIC
Escherichia coli [13] = experiment: Compound was tested for antibacterial activity against gram negative Escherichia coli ML4707; format: functional; details: Escherichia coli; read-out: MIC
Citrobacter freundii [14] = experiment: Compound was tested for antibacterial activity against gram negative Citrobacter freundii No.7; format: functional; details: Citrobacter freundii; read-out: MIC
Escherichia coli [15] = experiment: Compound was tested for antibacterial activity against gram negative Escherichia coli CSH2/RK1; format: functional; details: Escherichia coli; read-out: MIC
Klebsiella pneumoniae [16] = experiment: Compound was tested for antibacterial activity against gram negative Klebsiella pneumoniae KC-1; format: functional; details: Klebsiella pneumoniae; read-out: MIC
Pseudomonas aeruginosa [17] = experiment: Compound was tested for antibacterial activity against gram negative Pseudomonas aeruginosa PAO1; format: functional; details: Pseudomonas aeruginosa; read-out: MIC
Klebsiella oxytoca = experiment: Compound was tested for antibacterial activity against gram negative Klebsiella oxytoca GN 10650; format: functional; details: Klebsiella oxytoca; read-out: MIC
[18] = test system: Acinetobacter calcoaceticus; experiment: Compound was tested for antibacterial activity against gram negative Acinetobacter calcoaceticus No.4; format: functional; details: Acinetobacter calcoaceticus; read-out: MIC
Pseudomonas aeruginosa [19] = experiment: Compound was tested for antibacterial activity against gram negative Pseudomonas aeruginosa AK109; format: functional; details: Pseudomonas aeruginosa; read-out: MIC
[20] = Staphylococcus aureus, read-out: MIC
[21] = Escherichia coli, read-out: MIC

| MIC (Klebsiella pneumoniae [1]) | MIC (Staphylococcus aureus [2]) | MIC (Pseudomonas aeruginosa [3]) | MIC (Pseudomonas aeruginosa [4]) | MIC (Burkholderia cepacia) | MIC (Escherichia coli [5]) | MIC (Proteus vulgaris [6]) | MIC (Citrobacter freundii [9]) | MIC (Proteus mirabilis) | MIC (Enterococcus faecalis) | MIC (Serratia marcescens) | MIC (Proteus vulgaris [10]) | MIC (Streptococcus pyogenes) | MIC (Staphylococcus aureus [11]) | MIC (Enterobacter cloacae) | MIC (Staphylococcus aureus [12]) | MIC (Escherichia coli [13]) | MIC (Citrobacter freundii [14]) | MIC (Escherichia coli [15]) | MIC (Klebsiella pneumoniae [16]) | SMILES | also measured |
| --- | --- | --- | --- | --- | --- | --- | --- | --- | --- | --- | --- | --- | --- | --- | --- | --- | --- | --- | --- | --- | --- |
| 3.13 µg/mL (≈ 7.04 µM) | 0.78 µg/mL (≈ 1.76 µM) | 25 µg/mL (≈ 56.3 µM) | > 100 µg/mL | 3.13 µg/mL (≈ 7.04 µM) | 6.25 µg/mL (≈ 14.1 µM) | 0.78 µg/mL (≈ 1.76 µM) | > 100 µg/mL | 0.2 µg/mL (≈ 0.45 µM) | 0.2 µg/mL (≈ 0.45 µM) | 6.25 µg/mL (≈ 14.1 µM) | 100 µg/mL (≈ 225 µM) | 0.2 µg/mL (≈ 0.45 µM) | ≤ 0.006 µg/mL | 3.13 µg/mL (≈ 7.04 µM) | 0.025 µg/mL (≈ 0.0563 µM) | 0.2 µg/mL (≈ 0.45 µM) | 12.5 µg/mL (≈ 28.1 µM) | 6.25 µg/mL (≈ 14.1 µM) | 1.56 µg/mL (≈ 3.51 µM) | COc1c(N2C[C@@H](CO)[C@H](C(F)(F)F)C2)c(F)cc2c(=O)c(C(=O)O)cn(C3CC3)c12 | MIC (Staphylococcus aureus [7]; [20]): 0.013 µg/mL (≈ 0.0293 µM); MIC (Escherichia coli [8]; [21]): 0.39 µg/mL (≈ 0.878 µM); MIC (Pseudomonas aeruginosa [17]): 3.13 µg/mL (≈ 7.04 µM); MIC (Klebsiella oxytoca): 1.56 µg/mL (≈ 3.51 µM); MIC [18]: 0.78 µg/mL (≈ 1.76 µM); MIC (Pseudomonas aeruginosa [19]): 6.25 µg/mL (≈ 14.1 µM) |
| 0.39 µg/mL | 1.56 µg/mL | 50 µg/mL | > 100 µg/mL | 1.56 µg/mL | 3.13 µg/mL | 0.39 µg/mL | 100 µg/mL | 0.2 µg/mL | 0.39 µg/mL | 3.13 µg/mL | 100 µg/mL | 0.39 µg/mL | 0.025 µg/mL | 3.13 µg/mL | 0.05 µg/mL | 0.1 µg/mL | 3.13 µg/mL | 3.13 µg/mL | 0.2 µg/mL | COc1c(N2C[C@@H](C(F)(F)F)[C@@H](N)C2)c(F)cc2c(=O)c(C(=O)O)cn(C3CC3)c12.Cl | MIC (Staphylococcus aureus [7]; [20]): 0.05 µg/mL; MIC (Escherichia coli [8]; [21]): 0.2 µg/mL; MIC (Pseudomonas aeruginosa [17]): 3.13 µg/mL; MIC (Klebsiella oxytoca): 0.39 µg/mL; MIC [18]: 0.2 µg/mL; MIC (Pseudomonas aeruginosa [19]): 6.25 µg/mL |
| 0.2 µg/mL | 0.39 µg/mL | 12.5 µg/mL | 100 µg/mL | 1.56 µg/mL | 0.78 µg/mL | 0.1 µg/mL | 25 µg/mL | 0.1 µg/mL | 0.05 µg/mL | 0.39 µg/mL | 50 µg/mL | 0.025 µg/mL | ≤ 0.006 µg/mL | 0.39 µg/mL | 0.025 µg/mL | 0.05 µg/mL | 0.78 µg/mL | 0.78 µg/mL | 0.05 µg/mL | COc1c(N2C[C@@H](CN)[C@H](C(F)(F)F)C2)c(F)cc2c(=O)c(C(=O)O)cn(C3CC3)c12.Cl (racemic) | MIC (Staphylococcus aureus [7]): 0.013 µg/mL; MIC (Escherichia coli [8]): 0.1 µg/mL; MIC (Pseudomonas aeruginosa [17]): 1.56 µg/mL; MIC (Klebsiella oxytoca): 0.1 µg/mL; MIC [18]: 0.1 µg/mL; MIC (Pseudomonas aeruginosa [19]): 1.56 µg/mL |

| SMILES | MIC (Klebsiella pneumoniae [1]) | MIC (Staphylococcus aureus [2]) | MIC (Pseudomonas aeruginosa [3]) | MIC (Pseudomonas aeruginosa [4]) | MIC (Burkholderia cepacia) | MIC (Escherichia coli [5]) | MIC (Proteus vulgaris [6]) | MIC (Citrobacter freundii [9]) | MIC (Proteus mirabilis) | MIC (Enterococcus faecalis) | MIC (Serratia marcescens) | MIC (Proteus vulgaris [10]) | MIC (Streptococcus pyogenes) | MIC (Staphylococcus aureus [11]) | MIC (Enterobacter cloacae) | MIC (Staphylococcus aureus [12]) | MIC (Escherichia coli [13]) | MIC (Citrobacter freundii [14]) | MIC (Escherichia coli [15]) | MIC (Klebsiella pneumoniae [16]) | also measured |
| --- | --- | --- | --- | --- | --- | --- | --- | --- | --- | --- | --- | --- | --- | --- | --- | --- | --- | --- | --- | --- | --- |
| CC1COc2c(N3CCN(C)CC3)c(F)cc3c(=O)c(C(=O)O)cn1c23 (stereo not given) [OFLOXACIN] | 0.2 µg/mL (≈ 0.553 µM) | 25 µg/mL (≈ 69.2 µM) | 12.5 µg/mL (≈ 34.6 µM) | > 100 µg/mL | 3.13 µg/mL (≈ 8.66 µM) | 0.78 µg/mL (≈ 2.16 µM) | 0.05 µg/mL (≈ 0.138 µM) | 50 µg/mL (≈ 138 µM) | 0.05 µg/mL (≈ 0.138 µM) | 1.56 µg/mL (≈ 4.32 µM) | 0.78 µg/mL (≈ 2.16 µM) | 50 µg/mL (≈ 138 µM) | 0.78 µg/mL (≈ 2.16 µM) | 0.2 µg/mL (≈ 0.553 µM) | 0.39 µg/mL (≈ 1.08 µM) | 0.39 µg/mL (≈ 1.08 µM) | 0.025 µg/mL (≈ 0.0692 µM) | 0.39 µg/mL (≈ 1.08 µM) | 0.78 µg/mL (≈ 2.16 µM) | 0.05 µg/mL (≈ 0.138 µM) | MIC (Staphylococcus aureus [7]; [20]): 0.39 µg/mL (≈ 1.08 µM); MIC (Escherichia coli [8]; [21]): 0.1 µg/mL (≈ 0.277 µM); MIC (Pseudomonas aeruginosa [17]): 1.56 µg/mL (≈ 4.32 µM); MIC (Klebsiella oxytoca): 0.1 µg/mL (≈ 0.277 µM); MIC [18]: 0.78 µg/mL (≈ 2.16 µM); MIC (Pseudomonas aeruginosa [19]): 1.56 µg/mL (≈ 4.32 µM) |
| NC1CCN(c2nc3c(cc2F)c(=O)c(C(=O)O)cn3-c2ccc(F)cc2F)C1 (stereo not given) [TOSUFLOXACIN] | 0.025 µg/mL (≈ 0.0618 µM) | 12.5 µg/mL (≈ 30.9 µM) | 6.25 µg/mL (≈ 15.5 µM) | > 12.5 µg/mL | 0.78 µg/mL (≈ 1.93 µM) | 0.39 µg/mL (≈ 0.965 µM) | 0.05 µg/mL (≈ 0.124 µM) | > 12.5 µg/mL | 0.05 µg/mL (≈ 0.124 µM) | 0.2 µg/mL (≈ 0.495 µM) | 0.39 µg/mL (≈ 0.965 µM) | > 12.5 µg/mL | 0.1 µg/mL (≈ 0.247 µM) | 0.025 µg/mL (≈ 0.0618 µM) | 0.2 µg/mL (≈ 0.495 µM) | 0.05 µg/mL (≈ 0.124 µM) | 0.013 µg/mL (≈ 0.0322 µM) | 0.39 µg/mL (≈ 0.965 µM) | 0.39 µg/mL (≈ 0.965 µM) | 0.025 µg/mL (≈ 0.0618 µM) | MIC (Staphylococcus aureus [7]; [20]): 0.05 µg/mL (≈ 0.124 µM); MIC (Escherichia coli [8]; [21]): 0.05 µg/mL (≈ 0.124 µM); MIC (Pseudomonas aeruginosa [17]): 0.39 µg/mL (≈ 0.965 µM); MIC (Klebsiella oxytoca): 0.05 µg/mL (≈ 0.124 µM); MIC [18]: 0.025 µg/mL (≈ 0.0618 µM); MIC (Pseudomonas aeruginosa [19]): 0.39 µg/mL (≈ 0.965 µM) |
